A short description of series [1]: Particle size by DLS before and after binding to albumin. Format: physicochemical. Conditions: BSA 200 μM and ECMal-PROTAC 140 μM in PBS, 1:1, 30 minutes. The procedure: A BSA solution (200 μM) diluted with PBS was co-incubated by mixing it with an ECMal-PROTAC aqueous solution (140 μM) of example 1 at a 1:1 volume ratio.
Series [2] has as its target T1, BRD4 (Mus musculus, UniProt Q9ESU6).
T1 construct: Western blot after PROTAC (ARV-771 release, VHL recruiting)
The experiment in a line: Western blot, BRD4 degradation in 4T1 cells. The conditions noted are these: 24 hours. Format: cell-based. The procedure:
(§1) Accordingly, Western blot analysis was performed to confirm the anticancer ability by evaluating the presence or absence of degradation of BRD4 and other related proteins (e.g., c-Myc and Bcl-2) when cancer cells were treated with the complex for cancer targeting (ECMal-PROTAC) of example 1. The complex for cancer targeting (ECMal-PROTAC) of example 1 and ARV-771 were prepared as samples.
(§2) First, 1×10^5 4T1 cells were dispensed into each well of a 6-well culture plate and cultured for 24 hours at 37° C. and 5% carbon dioxide atmosphere. The cell culture medium was supplemented with various concentrations of ARV-771 (0 to 10 μM) or the complex for cancer targeting (ECMal-PROTAC) of example 1 (0 to 10 μM), and cultured at 37° C. for 24 hours. After the culture was completed, the cells were washed 3 times with PBS, and lysed with a lysis buffer containing 1% […]. Cell debris from the recovered lysate was removed by centrifugation at 12,000 rpm for 25 minutes. After recovering the supernatant, the protein amount was measured using a BCA kit. The supernatant was loaded onto a 10% sodium dodecyl sulfate-polyacrylamide gel. Electrophoresis (SDS-PAGE) was performed, followed by blotting onto a polyvinylidene difluoride (PVDF) membrane. After blotting, the PVDF membrane was treated with 5% BSA-containing tris buffered saline containing 0.1% Tween 20 (TBS-T) for 2 hours to suppress the non-specific binding of IgG (immunoglobulin G). It was immediately exposed to a rabbit anti-mouse primary antibody (1,000:1). After treating at 4° C. for 24 hours, the PVDF membrane was washed 3 times with TBS-T and further incubated with an HRP-conjugated mouse anti-rabbit IgG antibody at room temperature for 1 hour. The immunoreactive bands on the PVDF membrane were analyzed through an ECL (enhanced chemiluminescence) system.

Series [3] relates to c-Myc. The experiment in a line: Western blot, c-Myc level in 4T1 cells. It counts as cell-based, mouse. Conditions: 0 to 10 μM, 24 hours. The procedure:
as §1
as §2, with “After blotting, the PVDF membrane was treated with 5% BSA-containing tris buffered saline containing 0.1% Tween 20 (TBS-T) for 2 hours to suppress the non-specific binding of IgG (immunoglobulin G). It was immediately exposed to a rabbit anti-mouse primary antibody (1,000:1). After treating at 4° C. for 24 hours, the PVDF membrane was washed 3 times with TBS-T and further incubated with an HRP-conjugated mouse anti-rabbit IgG antibody at room temperature for 1 hour.” left out
For orientation: A western blot detects proteins with antibodies after separation by electrophoresis.

Series [4] has as its system Bcl-2. Briefly: Western blot, Bcl-2 level in 4T1 cells. Format: cell-based, mouse. Conditions: 0 to 10 μM, 24 hours. The procedure: as §1
as §2, with “After blotting, the PVDF membrane was treated with 5% BSA-containing tris buffered saline containing 0.1% Tween 20 (TBS-T) for 2 hours to suppress the non-specific binding of IgG (immunoglobulin G). It was immediately exposed to a rabbit anti-mouse primary antibody (1,000:1). After treating at 4° C. for 24 hours, the PVDF membrane was washed 3 times with TBS-T and further incubated with an HRP-conjugated mouse anti-rabbit IgG antibody at room temperature for 1 hour.” left out

Series [5] deals with 4T1 cells. The experiment in a line: CCK-8 assay, toxicity on cancer cells. The conditions noted are these: CCK-8, 48 hours. It counts as cell-based, mouse. The procedure: The toxicity of ARV-771 and ECMal-PROTAC on cancer cells was analyzed by the CCK-8 (cell counting kit-8) assay. 4T1 cells were dispensed into a 96-well culture plate at 3×10^3 cells per well. They were cultured for 24 hours at 37° C. and 5% carbon dioxide atmosphere. The cells were treated with different concentrations of ARV-771 (0.01 to 100 μM), the complex for cancer targeting (ECMal-PROTAC) of example 1 (0.01 to 100 μM), and the complex for cancer targeting (Mal-PROTAC) of example 2 (0.01 to 100 μM) separately, and cultured for 48 hours. After exposing each well to 10% CCK-8-containing culture media for 30 minutes, the viability of 4T1 cells treated with ARV-771 or 4T1 cells treated with ECMal-PROTAC or Mal-PROTAC was analyzed with a microplate reader. The change in cell viability according to the concentration of ARV-771 or ECMal-PROTAC or Mal-PROTAC was calculated using GraphPad Prism 8 software (GraphPad Software, San Diego, CA, USA) by fitting the IC50 (haf-maximal inhibitory concentration) value.
On the technique in general: Formazan colour is commonly taken as a measure of viable cells.

Series [6] has as its target T2, BSA (bovine serum albumin) (Bos taurus, UniProt P02769).
T2 construct: free Cys34 thiol reacts with maleimide
The experiment in a line: In vitro binding of ECMal-PROTAC to albumin (thiol-maleimide reaction), RP-HPLC. Conditions: ARV-771 140 μM, BSA 200 μM; mixed for more than 60 minutes. The procedure:
The binding rate of ECMal-PROTAC from example 1 and albumin was confirmed through RP-HPLC. Specifically, a BSA solution (200 μM) diluted with PBS was co-incubated by mixing it with an ECMal-PROTAC aqueous solution (140 μM) of example 1 at a 1:1 volume ratio. The culture was collected at incubation times of 0 minutes, 5 minutes, 30 minutes, and 60 minutes. It was quenched with mercaptoethanol, and HPLC spectra for each sample were acquired through concentration gradient of the eluent (ACN/H2O, 20/80 to 80/20 (v/v), 30 minutes).
To verify the albumin binding ability of the complex for cancer targeting (ECMal-PROTAC) of example 1, the mixture of BSA and the complex for cancer targeting (ECMal-PROTAC) was analyzed by LC-MS spectrum, and compared with the LC-MS spectrum of free BSA.
FIG. 4 is the HPLC spectrum of a mixture of BSA and the complex for cancer targeting (ECMal-PROTAC). According to this, it can be seen that BSA and the complex for cancer targeting (ECMal-PROTAC) rapidly bind through a thiol-maleimide click chemical reaction. To confirm the albumin binding ability of the complex for cancer targeting (ECMal-PROTAC) of example 1, bovine serum albumin (BSA), which has a structure similar to human serum albumin (HSA), was used for analysis.
At this time, the HPLC spectra were also analyzed for a co-incubation of ARV-771 (140 μM) and BSA solution (200 μM) mixed at a 1:1 volume ratio as a comparative example, and for the ECMal-PROTAC solution and BSA solution alone without any treatment of example 1.
From the HPLC results for the BSA and complex for cancer targeting (ECMal-PROTAC) mixture in Experimental Example 1 and the thiol-blocked BSA and complex for cancer targeting (ECMal-PROTAC) mixture in Experimental Example 2, the reduction in the HPLC peak area associated with the complex for cancer targeting (ECMal-PROTAC) was quantified.

The subject of series [7] is 4T1 tumor. The experiment in a line: In vivo anticancer efficacy, tumor size in 4T1 cancer animal model. More on the design: species or system mouse. Conditions: 10 mg/kg, tail vein, once every 3 days for 15 days. The procedure: 5-week-old female Balb/c and Balb/c nu/nu mice were purchased from NaraBio, Inc (Seoul, Republic of Korea). The mice underwent a 2-week acclimatization period before the example. The mice were raised under free-feeding conditions in a breeding room maintained at a temperature of 22±2° C. and humidity of 40-60% during the example. The light and dark cycle was regulated at 12-hour intervals. All examples were conducted in compliance with the relevant laws and institutional guidelines of the KIST Institutional Animal Care and Use Committee (IACUC; Approval No.: 2021-143).
Cancer animal models were prepared by inoculating 1×10^6 4T1 cells into the left thigh of the mice, and raising them until the tumor volume reached 50-80 mm^3.
For the preparation of the control group, the comparison group, and the example group, mice were randomly divided into groups of 5.
(§3) The control group was administered saline (10 mg/kg) once every 3 days for 15 days through the tail vein (total 4 administrations). The comparison group was administered ARV-771 (10 mg/kg) once every 3 days for 15 days through the tail vein (total 4 administrations). The example group was administered ECMal-PROTAC 10 mg/kg (wquiv. to ARV-771) of example 1 once every 3 days for 15 days through the tail vein (total 4 administrations).
(§4) Tumor size and body weight were measured every two days for the control group, the comparison group, and the example group.

A short description of series [8]: Body weight and systemic side effects. Format: in vivo, mouse. The conditions noted are these: 10 mg/kg, i.v., once every 3 days for 15 days. The procedure: as §3, §4
For series [9], the system named is organ tissue and cancer tissue. Briefly: H&E histology of major organs and cancer tissue. It counts as in vivo, mouse. The conditions noted are these: excised after 15 days. The procedure: as §3
The control group, the comparison group, and the example group were euthanized after 15 days, and major organs (heart, liver, lung, spleen, kidney) and cancer tissue were excised.
Furthermore, to analyze cancer cell apoptosis, TUNEL (terminal deoxynucleotidyl transferase dUTP nick end labeling) analysis was performed on cancer tissue excised from the control group, the comparison group, and the example group. Next, histological analysis was performed by H&E (hematoxylin & eosin) staining of the major organ tissues and cancer tissue of each excised group.
According to FIG. 29, major organ tissue and cancer tissue were excised from the control group, the comparison group, and the example group after 15 days. The excised organ tissue and cancer tissue were stained with H&E (hematoxylin & eosin). The H&E stained tissue was observed using a BX51 optical microscope (Olympus, Tokyo, Japan) and a TCS SP8 confocal laser microscope.

Series [10] deals with liver tissue. Briefly: TUNEL analysis of liver tissue. Format: in vivo, mouse. Conditions: administered alone (comparison group).
For series [11], the system named is BRD4 and c-Myc. Briefly: Immunofluorescence of excised cancer tissue (DAPI, anti-BRD4, anti-c-Myc). Conditions: FIG. 33. It counts as in vivo, mouse. The procedure:
as §3
FIG. 33 is an image taken with a confocal laser scanning microscope after staining cancer tissue excised from the control group (Control, Saline), the comparison group (ARV-771, intravenous injection), and the example group (ECMal-PROTAC, intravenous injection) with DAPI, anti-BRD4, and anti-c-Myc.

The source of these data is US20260325542A1, “CANCER TARGETING COMPLEX, AND COMPOSITION COMPRISING SAME FOR PREVENTING OR TREATING CANCER” (EWHA UNIVERSITY - INDUSTRY COLLABORATION FOUNDATION, priority 2023, published 2026).

T2 sequence (P02769 25-607): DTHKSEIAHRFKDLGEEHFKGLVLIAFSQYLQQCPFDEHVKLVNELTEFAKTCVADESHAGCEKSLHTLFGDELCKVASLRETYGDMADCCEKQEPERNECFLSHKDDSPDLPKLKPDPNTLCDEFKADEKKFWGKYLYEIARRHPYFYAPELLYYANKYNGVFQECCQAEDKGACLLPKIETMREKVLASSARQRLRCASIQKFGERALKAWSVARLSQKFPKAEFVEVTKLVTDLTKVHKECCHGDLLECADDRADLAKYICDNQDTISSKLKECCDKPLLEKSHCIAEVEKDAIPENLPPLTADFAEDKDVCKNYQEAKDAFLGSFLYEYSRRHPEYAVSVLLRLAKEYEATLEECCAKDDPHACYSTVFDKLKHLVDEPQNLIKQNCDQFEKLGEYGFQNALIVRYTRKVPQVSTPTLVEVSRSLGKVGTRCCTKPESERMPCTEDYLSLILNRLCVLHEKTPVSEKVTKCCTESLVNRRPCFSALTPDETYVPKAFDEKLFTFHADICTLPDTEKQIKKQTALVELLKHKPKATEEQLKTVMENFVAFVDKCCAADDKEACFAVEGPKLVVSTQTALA

BSA: bovine serum albumin; 98% yielded an average particle size in series [1] of 5.43±1.42 nm.
Regarding `Cc1ncsc1-c1ccc([C@H](C)NC(=O)[C@@H]2C[C@@H](OC(=O)CNC(=O)CCOCCOCCNC(=O)CCN3C(=O)C=CC3=O)CN2C(=O)[C@@H](NC(=O)COCCCOCCNC(=O)C[C@@H]2N=C(c3ccc(Cl)cc3)c3c(sc(C)c3C)-n3c(C)nnc32)C(C)(C)C)cc1` [Mal-PROTAC], the “degradation of overexpressed BRD4 protein” value in [2] (0 to 10 μM) is “induce BRD4 deficiency”. Further, in series [3], the c-Myc level entry was “reduced expression”. For the same compound, the Bcl-2 level entry in [4] is recorded as “reduced expression”. For the same compound, the “IC50 compared to native ARV-771” value in [5] is reported as “slight increase in IC50 compared to native ARV-771”.
By IC50 is commonly meant the point on the concentration scale where inhibition reaches its midpoint. On to `Cc1ncsc1-c1ccc([C@H](C)NC(=O)[C@@H]2C[C@@H](O)CN2C(=O)[C@@H](NC(=O)COCCCOCCNC(=O)C[C@@H]2N=C(c3ccc(Cl)cc3)c3c(sc(C)c3C)-n3c(C)nnc32)C(C)(C)C)cc1` [ARV-771, reference compound], for which, in series [6], the “interaction with BSA” value is given as “did not form an interaction”. Also, in series [2] (Western blot, read-out: DC50 (half-maximal degradation concentration), BRD4), the DC50 was determined as 3.38 µM. Further, the IC50 in series [5] (Mus musculus, 4T1, FIGS. 15A and 15B, read-out: IC50 against cancer cells) was found to be 6.38 µM. In series [7], the “cancer size vs control (saline)” value is on record as “no significant difference” and the “increase of cancer size from Day 0” value is on record as 14.8 times. In series [8], the systemic side effects entry is “did not show serious systemic side effects” and the weight loss result is recorded as “no significant weight loss was observed”. The “damage in cancer tissue (H&E)” value in series [9] was “did not observe serious damage”. Also, the “damage in organ tissue (H&E)” value in series [9] (liver, lung, spleen, kidney, heart) is listed as “did not observe serious damage”. In addition, the “effect on normal tissue and cancer tissue” value in [10] was “affect both normal tissue and cancer tissue”. In addition, in series [11], the “BRD4 degradation in cancer tissue” value was “insufficient to induce apoptosis in cancer tissue”.
